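How tested: cells in 96-well plates exposed to compound for 48 hours at five concentrations. Abbreviation: GI50, concentration required for 50% inhibition of growth.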 Activity calls are given as the source filed them. Cut-off read from the data, not from the text of the source: active = GI50 up to about 1.1 µM and inactive = higher.
Legend:
Test in all cases: NCI tumour cell line growth inhibition, 48 h
SF-539 = test system: SF-539
OVCAR-3 = test system: OVCAR-3
ACHN = test system: ACHN
CAKI-1 = test system: CAKI-1
OVCAR-5 = test system: OVCAR-5
SK-OV-3 = test system: SK-OV-3
SN12C = test system: SN12C
UACC-62 = test system: UACC-62
HT-29 = test system: HT-29
A498 = test system: A498
EKVX = test system: EKVX
OVCAR-8 = test system: OVCAR-8
MCF7 = test system: MCF7
NCI-H23 = test system: NCI-H23
SNB-19 = test system: SNB-19
HCT-116 = test system: HCT-116
RPMI-8226 = test system: RPMI-8226
PC-3 = test system: PC-3
HCT-15 = test system: HCT-15
OVCAR-4 = test system: OVCAR-4

Row | Structure (SMILES) | GI50 (SF-539) | GI50 (OVCAR-3) | GI50 (ACHN) | GI50 (CAKI-1) | GI50 (OVCAR-5) | GI50 (SK-OV-3) | GI50 (SN12C) | GI50 (UACC-62) | GI50 (HT-29) | GI50 (A498) | GI50 (EKVX) | GI50 (OVCAR-8) | GI50 (MCF7) | GI50 (NCI-H23) | GI50 (SNB-19) | GI50 (HCT-116) | GI50 (RPMI-8226) | GI50 (PC-3) | GI50 (HCT-15) [µM] | GI50 (OVCAR-4)
1 | O=C(N/N=C/c1ccc2c(c1)OCO2)Nc1ccccc1Cl | 0.918 µM (active) | 0.391 µM (active) | 7.43 µM (inactive) | 4.18 µM (inactive) | 8 µM (inactive) | 2.77 µM (inactive) | 0.847 µM (active) | 0.762 µM (active) | 0.8 µM (active) | 1.95 µM (inactive) | 8.07 µM (inactive) | 2.56 µM (inactive) | 0.469 µM (active) | 1.66 µM (inactive) | 3.7 µM (inactive) | 0.861 µM (active) | 1.48 µM (inactive) | 2.21 µM (inactive) | 0.418 | 10 µM (inactive)
2 | COc1ccc(NCc2c(O)ccc3ccccc23)cc1 | 13.2 µM (inactive) | 27.2 µM (inactive) | 13.4 µM (inactive) | 22.3 µM (inactive) | 11.3 µM (inactive) | > 100 µM (inactive) | 34.4 µM (inactive) | 8.09 µM (inactive) | 21.6 µM (inactive) | 24.6 µM (inactive) | 18.9 µM (inactive) | 15.8 µM (inactive) | 28.8 µM (inactive) | 36.3 µM (inactive) | > 100 µM (inactive) | 33.8 µM (inactive) | 24.7 µM (inactive) | 17.1 µM (inactive) | 13.7 | 43.1 µM (inactive)
3 | S=c1sc2nc(Cl)nc(Cl)c2s1 | 20.6 µM (inactive) | 10.3 µM (inactive) | 13.9 µM (inactive) | 7.52 µM (inactive) | 15.7 µM (inactive) | 17.7 µM (inactive) | 14.5 µM (inactive) | 13 µM (inactive) | 8.24 µM (inactive) | 18 µM (inactive) | 16.9 µM (inactive) | 9.33 µM (inactive) | 8.49 µM (inactive) | 16.9 µM (inactive) | 17.9 µM (inactive) | 11.9 µM (inactive) | 1.68 µM (inactive) | 12.4 µM (inactive) | 13.2 | 16.6 µM (inactive)
4 | CC1=C(C(N)=O)C(c2ccncc2)C(C#N)=C2SCC(=O)N12 (stereo not given) | > 100 µM (inactive) | > 100 µM (inactive) | > 100 µM (inactive) | > 100 µM (inactive) | > 100 µM (inactive) | > 100 µM (inactive) | > 100 µM (inactive) | > 100 µM (inactive) | > 100 µM (inactive) | > 100 µM (inactive) | > 100 µM (inactive) | > 100 µM (inactive) | > 100 µM (inactive) | > 100 µM (inactive) | > 100 µM (inactive) | > 100 µM (inactive) | > 100 µM (inactive) | > 100 µM (inactive) | > 100 | > 100 µM (inactive)
5 | CC1(C)CCC(C)(C)c2c1ccc(O)c2Cc1c(O)ccc2c1C(C)(C)CCC2(C)C | 1.99 µM (inactive) | 2.21 µM (inactive) | 1.74 µM (inactive) | 2.15 µM (inactive) | 2.25 µM (inactive) | 2.3 µM (inactive) | 1.82 µM (inactive) | 2.02 µM (inactive) | 2.19 µM (inactive) | 1.79 µM (inactive) | 2.93 µM (inactive) | 2.13 µM (inactive) | 1.84 µM (inactive) | 2.04 µM (inactive) | 2.28 µM (inactive) | 2 µM (inactive) | 1.87 µM (inactive) | 2 µM (inactive) | 1.92 | 1.81 µM (inactive)
6 | CCCCCCc1cc2cc(-c3cn4ccsc4n3)c(=O)oc2cc1O | 64.3 µM (inactive) | > 77.1 µM (inactive) | > 100 µM (inactive) | > 71.1 µM (inactive) | > 100 µM (inactive) | > 100 µM (inactive) | > 100 µM (inactive) | 19.1 µM (inactive) | > 100 µM (inactive) | > 100 µM (inactive) | > 77.6 µM (inactive) | > 53.3 µM (inactive) | 99.5 µM (inactive) | > 82 µM (inactive) | > 100 µM (inactive) | > 67.6 µM (inactive) | 98.9 µM (inactive) | > 100 µM (inactive) | > 90.4 | > 79.6 µM (inactive)
7 | COc1ccc(N2C(=O)C(C)SC2c2cc3cc(Br)ccc3nc2Cl)cc1 (stereo not given) | 27.4 µM (inactive) | 34.9 µM (inactive) | 48.8 µM (inactive) | 35.1 µM (inactive) | 57.9 µM (inactive) | 59.8 µM (inactive) | 35.2 µM (inactive) | 26.2 µM (inactive) | 32.4 µM (inactive) | 46.8 µM (inactive) | 21.6 µM (inactive) | 37.5 µM (inactive) | 33.2 µM (inactive) | 33.6 µM (inactive) | 25.6 µM (inactive) | 37.8 µM (inactive) | 32.7 µM (inactive) | 25.4 µM (inactive) | 32.9 | 27.8 µM (inactive)
8 | COC(=O)CNC(=O)CCC(C)[C@H]1CCC2C3C(C[C@H](OC(C)=O)[C@@]21C)[C@@]1(C)CCC2(C[C@H]1C[C@H]3OC(C)=O)OOC1(CCCCC1)OO2 (stereo not given in full) | 1.95 µM (inactive) | 2.04 µM (inactive) | 1.89 µM (inactive) | 2.02 µM (inactive) | 2.6 µM (inactive) | 12.4 µM (inactive) | 1.59 µM (inactive) | 9.12 µM (inactive) | 2.69 µM (inactive) | 17.2 µM (inactive) | 2.18 µM (inactive) | 1.82 µM (inactive) | 3.26 µM (inactive) | 1.91 µM (inactive) | 4.63 µM (inactive) | 2.73 µM (inactive) | 1.75 µM (inactive) | 2.49 µM (inactive) | 2.7 | 1.83 µM (inactive)
9 | COc1ccc(OC)c(C(Cc2ccnc3ccccc23)Cc2ccnc3ccccc23)c1 | > 10 µM (inactive) | > 10 µM (inactive) | > 10 µM (inactive) | > 10 µM (inactive) | > 10 µM (inactive) | > 10 µM (inactive) | > 10 µM (inactive) | > 10 µM (inactive) | 6.5 µM (inactive) | > 10 µM (inactive) | 5.15 µM (inactive) | > 10 µM (inactive) | 4.93 µM (inactive) | > 10 µM (inactive) | > 10 µM (inactive) | 0.857 µM (active) | 5.18 µM (inactive) | 5.28 µM (inactive) | 6.44 | 6.11 µM (inactive)
10 | Fc1ccc(C(OCCN2CCC3CCC(C2)N3Cc2cc3ccccc3[nH]2)c2ccc(F)cc2)cc1 (stereo not given) | 1.59 µM (inactive) | 1.77 µM (inactive) | 1.89 µM (inactive) | 2.23 µM (inactive) | 1.74 µM (inactive) | 2.33 µM (inactive) | 1.68 µM (inactive) | 2.08 µM (inactive) | 1.08 µM (active) | 1.47 µM (inactive) | 1.7 µM (inactive) | 1.73 µM (inactive) | 1.79 µM (inactive) | 1.58 µM (inactive) | 2.54 µM (inactive) | 1.33 µM (inactive) | 1.42 µM (inactive) | 1.7 µM (inactive) | 1.15 | 1.95 µM (inactive)
11 | Cc1cc(O)c2c(c1)C(=O)C(c1c(C)cc3c(c1O)C(=O)C1OC1C3=O)=CC2=O (stereo not given) | 4.48 µM (inactive) | 1.83 µM (inactive) | 0.885 µM (active) | 0.796 µM (active) | 5.27 µM (inactive) | 17.7 µM (inactive) | 3.44 µM (inactive) | 2.04 µM (inactive) | 3.36 µM (inactive) | 6.4 µM (inactive) | 3.15 µM (inactive) | 4.11 µM (inactive) | 1.84 µM (inactive) | 8.97 µM (inactive) | 21.5 µM (inactive) | 1.71 µM (inactive) | 0.357 µM (active) | 12.5 µM (inactive) | 1.16 | 3.33 µM (inactive)
12 | O=c1cc(N2CCOCC2)oc2c(-c3ccccc3)cccc12 [LY-294002] | 7.98 µM (inactive) | 7.16 µM (inactive) | 7.45 µM (inactive) | 2.39 µM (inactive) | 12.1 µM (inactive) | 14.2 µM (inactive) | 5.36 µM (inactive) | 3.79 µM (inactive) | 6.25 µM (inactive) | 2.48 µM (inactive) | 3.49 µM (inactive) | 4.58 µM (inactive) | 3.09 µM (inactive) | 3.76 µM (inactive) | 14.6 µM (inactive) | 12.6 µM (inactive) | 2.96 µM (inactive) | 2.34 µM (inactive) | 7.91 | 2.7 µM (inactive)
13 | CCOC(=O)/C(=C\c1ccc(C#N)cc1)C(C)=O | 29 µM (inactive) | 36.6 µM (inactive) | 23.6 µM (inactive) | 22.2 µM (inactive) | 30.8 µM (inactive) | 40.8 µM (inactive) | 25.2 µM (inactive) | 2.23 µM (inactive) | 33.4 µM (inactive) | 13.3 µM (inactive) | 49.7 µM (inactive) | 36.6 µM (inactive) | 19.9 µM (inactive) | 17.5 µM (inactive) | 45.1 µM (inactive) | 23.3 µM (inactive) | 22 µM (inactive) | 18.5 µM (inactive) | 18.2 | 23.3 µM (inactive)
14 | CSc1cc(-c2cccs2)sc1-c1cc(SC)c(-c2sc(-c3sc(-c4cccs4)cc3SC)cc2SC)s1 | > 100 µM (inactive) | > 100 µM (inactive) | > 100 µM (inactive) | > 100 µM (inactive) | 30.6 µM (inactive) | > 100 µM (inactive) | > 100 µM (inactive) | > 100 µM (inactive) | > 100 µM (inactive) | > 100 µM (inactive) | > 100 µM (inactive) | > 100 µM (inactive) | > 100 µM (inactive) | > 100 µM (inactive) | > 100 µM (inactive) | > 100 µM (inactive) | > 100 µM (inactive) | > 100 µM (inactive) | > 100 | > 100 µM (inactive)

Source: ChEMBL document CHEMBL1201862, “PubChem BioAssay data set” (2004)
